Measurements reported in patent US20230183219A1, “CONDENSED SUBSTITUTED HYDROPYRROLES AS ANTAGONISTS OF THE MUSCARINIC ACETYLCHOLINE RECEPTOR M4” (Vanderbilt University, priority 2020, published 2023).

Target: T1, Human M4 (Homo sapiens, UniProt P08173)
T1 construct: Human or rat M4 cDNA, along with the chimeric G protein Gqi5, were transfected into Chinese hamster ovary (CHO-K1) cells; expressed in transfected cells; host or cells: CHO-K1 (Chinese hamster ovary, ATCC), stably co-expressing Gqi5
T1 sequence (P08173 1-479): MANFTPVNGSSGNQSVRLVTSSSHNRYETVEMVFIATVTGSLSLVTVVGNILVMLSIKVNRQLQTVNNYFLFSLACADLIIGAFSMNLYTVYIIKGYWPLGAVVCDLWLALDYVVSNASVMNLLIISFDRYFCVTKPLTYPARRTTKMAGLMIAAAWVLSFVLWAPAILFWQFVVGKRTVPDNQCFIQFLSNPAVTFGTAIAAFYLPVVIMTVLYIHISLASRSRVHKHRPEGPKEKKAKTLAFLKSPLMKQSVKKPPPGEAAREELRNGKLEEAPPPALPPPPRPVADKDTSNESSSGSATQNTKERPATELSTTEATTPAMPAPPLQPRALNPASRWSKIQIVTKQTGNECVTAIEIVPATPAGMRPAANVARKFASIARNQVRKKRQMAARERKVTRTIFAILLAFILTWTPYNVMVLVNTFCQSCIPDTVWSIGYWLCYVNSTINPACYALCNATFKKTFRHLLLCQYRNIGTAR
Test: mAChR M4 cell-based functional assay (calcium flux, decrease of EC80 acetylcholine response)
Conditions: for remaining activity at 30 µM: read-out: Human M4 Emin; for IC50: M4/Gqi5/CHO-K1 cells, decrease of response to EC80 acetylcholine
Protocol: Human or rat M4 cDNA, along with the chimeric G protein Gqi5, were transfected into Chinese hamster ovary (CHO-K1) cells purchased from the American Type Culture Collection using Lipofectamine2000. M4/Gqi5/CHO cells were grown in Ham's F-12 medium containing 10% heat-inactivated fetal bovine serum (FBS), 20 mM HEPES, 500 μg/mL G418 sulfate, and 200 μg/mL Hygromycin B.
For high throughput measurement of agonist-evoked increases in intracellular calcium, CHO-K1 cells stably expressing muscarinic receptors were plated in growth medium lacking G418 and hygromycin at 15,000 cells/20 μL/well in Greiner 384-well black-walled, tissue culture (TC)-treated, clear-bottom plates (VWR). Cells were incubated overnight at 37° C. and 5% CO2. The next day, cells were washed using an ELX 405 (BioTek) with assay buffer; the final volume was then aspirated to 20 μL. Next, 20 μL of a 2.3 μM stock of Fluo-4/acetoxymethyl ester (Invitrogen, Carlsbad, Calif.), prepared as a 2.3 mM stock in DMSO and mixed in a 1:1 ratio with 10% (w/v) Pluronic F-127 and diluted in assay buffer, was added to the wells and the cell plates were incubated for 50 min at 37° C. and 5% CO2. Dye was removed by washing with the ELX 405 and the final volume was aspirated to 20 μL. Compound master plates were formatted in a 10 point concentration-response curve (CRC) format (1:3 dilutions) in 100% DMSO with a starting concentration of 10 or 1 mM using a BRAVO liquid handler (Agilent). Test compound CRCs were then transferred to daughter plates (240 nL) using the Echo acoustic plate reformatter (Labcyte, Sunnyvale, Calif.) and then diluted into assay buffer (40 μL) to a 2×stock using a Thermo Fisher Combi (Thermo Fisher Scientific, Waltham, Mass.).
Calcium flux was measured using the Functional Drug Screening System (FDSS) 6000 or 7000 (Hamamatsu Corporation, Tokyo, Japan) as an increase in the fluorescent static ratio. Compounds were applied to cells (20 μL, 2×) using the automated system of the FDSS at 2 seconds into the protocol and the data were collected at 1 Hz. At 143 s, 10 μL of an EC20 concentration of the muscarinic receptor agonist acetylcholine was added (5×), followed by the addition of 12 μL of an EC80 concentration of acetylcholine at the 268 s time point (5×). Agonist activity was analyzed as a concentration-dependent increase in calcium mobilization upon compound addition. Positive allosteric modulator activity was analyzed as a concentration-dependent increase in the EC20 acetylcholine response. Antagonist activity was analyzed as a concentration-dependent decrease in the EC80 acetylcholine response; for the purposes of the tables herein, an IC50 (inhibitory concentration 50) was calculated as a concentration-dependent decrease of the response elicited by an EC80 concentration of acetylcholine. Concentration-response curves were generated using a four-parameter logistical equation in XLFit curve fitting software (IDBS, Bridgewater, N.J.) for Excel (Microsoft, Redmond, Wash.) or Prism (GraphPad Software, Inc., San Diego, Calif.) or the Dotmatics software platform (Dotmatics, Bishop's Stortford, UK).
Compounds were synthesized as described above. Activity (IC50 and Emin) was determined in the mAChR M4 cell-based functional assay as described above and the data are shown in Table 2.

Row | remaining activity at 30 µM (% ACh maximum at 30 μM) | IC50 | Human M4 Emin (% ACh maximum at 30 μM) | SMILES
1 | 3% | 0.592 µM |  | Cc1ccc(F)cc1-c1cc(C(F)(F)F)c(O[C@H]2C[C@@H]3CN(CC4CCOCC4)C[C@@H]3C2)nn1 [Example 132, (3aR,5s,6aS)-5-((6-(5-fluoro-2-methylphenyl)-4-(trifluoromethyl)pyridazin-3-yl)oxy)-2-((tetrahydro-2H-pyran-4-yl)methyl)octahydro-cyclopenta[c]pyrrole]
2 |  | 3.67 µM |  | Cc1c(-c2nnc(N(C)[C@H]3C[C@@H]4CN(CC5CCOCC5)C[C@@H]4C3)cc2C(F)(F)F)ccc2nn(C)cc12 [Example 7, (3aR,5s,6aS)—N-(6-(2,4-dimethyl-2H-indazol-5-yl)-5-(trifluoromethyl)pyridazin-3-yl)-N-(methyl-d3)-2-((tetrahydro-2H-pyran-4-yl)methyl)octahydrocyclopenta [c]pyrrol-5-amine]
3 | 3% | 0.0027 µM |  | Cc1ccc(F)cc1-c1cc(C(F)(F)F)c(N[C@H]2C[C@@H]3CN(C[C@H]4COCCO4)C[C@@H]3C2)nn1 [Example 22, (3aR,5s,6aS)-2-(((S)-1,4-dioxan-2-yl)methyl)-N-(6-(5-fluoro-2-methylphenyl)-4-(trifluoromethyl)pyridazin-3-yl)octahydro-cyclopenta[c]pyrrol-5-amine]
4 | 3% | 0.328 µM |  | Cc1cc(C)cc(-c2cc(C(F)(F)F)c(N[C@H]3C[C@@H]4CN(Cc5ccccn5)C[C@@H]4C3)nn2)c1 [Example 104, (3aR,5s,6aS)-N-(6-(3,5-dimethylphenyl)-4-(trifluoromethyl)pyridazin-3-yl)-2-(pyridin-2-ylmethyl)octahydro-cyclopenta[c]pyrrol-5-amine]
5 | 3% | 0.0737 µM |  | CCOc1ccc(-c2cc(C(F)(F)F)c(N[C@H]3C[C@@H]4CN(CC5CCOCC5)C[C@@H]4C3)nn2)c(C)c1 [Example 84, (3aR,5s,6aS)-N-(6-(4-ethoxy-2-methylphenyl)-4-(trifluoromethyl)pyridazin-3-yl)-2-((tetrahydro-2H-pyran-4-yl)methyl)octahydro-cyclopenta[c]pyrrol-5-amine]
6 | 6% | 0.147 µM |  | Cn1cc2cc(-c3cc(C(F)(F)F)c(N[C@H]4C[C@@H]5CN(C[C@@H]6COCCO6)C[C@@H]5C4)nn3)ccc2n1 [Example 35, (3aR,5s,6aS)-2-(((R)-1,4-dioxan-2-yl)methyl)-N-(6-(2-methyl-2H-indazol-5-yl)-4-(trifluoromethyl)pyridazin-3-yl)octahydro-cyclopenta[c]pyrrol-5-amine]
7 | 2% | 0.0004 µM |  | Cc1ccc(F)cc1-c1cc(C#N)c(N[C@H]2C[C@@H]3CN(C[C@H]4COCCO4)C[C@@H]3C2)nn1 [Example 149, 3-(((3aR,5s,6aS)-2-(((S)-1,4-dioxan-2-yl)methyl)octahydro-cyclopenta[c]pyrrol-5-yl)amino)-6-(5-fluoro-2-methylphenyl)pyridazine-4-carbonitrile]
8 | 4% | 0.622 µM |  | [2H][C@@]1(Oc2nnc(-c3cc(F)ccc3C)cc2C(F)(F)F)C[C@H]2CN(CC3CCOCC3)C[C@H]2C1 [Example 135, (3aR,5s,6aS)-5-((6-(5-fluoro-2-methylphenyl)-4-(trifluoro-methyl)pyridazin-3-yl)oxy)-2-((tetrahydro-2H-pyran-4-yl)methyl)octahydro-cyclopenta[c]pyrrole-5-d]
9 | 3% | 0.217 µM |  | [2H][C@@]1(Oc2cc(C(F)(F)F)c(-c3cc(F)ccc3C)nn2)C[C@H]2CN(CC3CCOCC3)C[C@H]2C1 [Example 133, (3aR,5s,6aS)-5-((6-(5-fluoro-2-methylphenyl)-5-(trifluoromethyl)pyridazin-3-yl)oxy)-2-((tetrahydro-2H-pyran-4-yl)methyl)octahydro-cyclopenta[c]pyrrole-5-d]
10 | 3% | 0.234 µM |  | CCOc1ccc(-c2cc(C(F)(F)F)c(N[C@H]3C[C@@H]4CN(CC5CCOCC5)C[C@@H]4C3)nn2)c(F)c1F [Example 56, (3aR,5s,6aS)-N-(6-(4-ethoxy-2,3-difluorophenyl)-4-(trifluoro-methyl)pyridazin-3-yl)-2-((tetrahydro-2H-pyran-4-yl)methyl)octahydro-cyclopenta[c]pyrrol-5-amine]
11 | 3% | 0.172 µM |  | Cc1cc(F)c(F)c(-c2cc(C(F)(F)F)c(N[C@H]3C[C@@H]4CN(CC5CCOCC5)C[C@@H]4C3)nn2)c1 [Example 93, (3aR,5s,6aS)-N-(6-(2,3-difluoro-5-methylphenyl)-4-(trifluoromethyl)pyridazin-3-yl)-2-((tetrahydro-2H-pyran-4-yl)methyl)octahydro-cyclopenta[c]pyrrol-5-amine]
12 |  |  | 15% | [2H]C([2H])([2H])N(c1cc(C(F)(F)F)c(-c2ccc3nn(C)cc3c2C)nn1)[C@H]1C[C@@H]2CN(CC3CCOCC3)C[C@@H]2C1 [Example 7, (3aR,5s,6aS)—N-(6-(2,4-dimethyl-2H-indazol-5-yl)-5-(trifluoromethyl)pyridazin-3-yl)-N-(methyl-d3)-2-((tetrahydro-2H-pyran-4-yl)methyl)octahydrocyclopenta [c]pyrrol-5-amine]
13 | 3% | 0.115 µM |  | COc1cc(C)c(-c2cc(C(F)(F)F)c(N[C@H]3C[C@@H]4CN(CC5CCOCC5)C[C@@H]4C3)nn2)cc1C [Example 52, (3aR,5s,6aS)-N-(6-(4-methoxy-2,5-dimethylphenyl)-4-(trifluoromethyl)pyridazin-3-yl)-2-((tetrahydro-2H-pyran-4-yl)methyl)octahydro-cyclopenta[c]pyrrol-5-amine]
14 | 3% | 0.0718 µM |  | [2H]C([2H])(C1CCOCC1)N1C[C@H]2C[C@H](Nc3nnc(-c4cnn(C)c4)cc3C(F)(F)F)C[C@H]2C1 [Example 109, (3aR,5s,6aS)-N-(6-(1-methyl-1H-pyrazol-4-yl)-4-(trifluoro-methyl)pyridazin-3-yl)-2-((tetrahydro-2H-pyran-4-yl)methyl-d2)octahydro-cyclopenta[c]pyrrol-5-amine]
15 | 3% | 0.349 µM |  | Cc1ccc(-c2cc(C(F)(F)F)c(N[C@H]3C[C@@H]4CN(CC5CCOCC5)C[C@@H]4C3)nn2)c(F)c1 [Example 79, (3aR,5s,6aS)-N-(6-(2-fluoro-4-methylphenyl)-4-(trifluoromethyl)pyridazin-3-yl)-2-((tetrahydro-2H-pyran-4-yl)methyl)octahydro-cyclopenta[c]pyrrol-5-amine]
16 | 2% | 0.0206 µM |  | C[C@@H]1CCCN(c2cc(C(F)(F)F)c(N[C@H]3C[C@@H]4CN(CC5CCOCC5)C[C@@H]4C3)nn2)C1 [Example 136, (3aR,5s,6aS)-N-(6-((R)-3-methylpiperidin-1-yl)-4-(trifluoromethyl)pyridazin-3-yl)-2-((tetrahydro-2H-pyran-4-yl)methyl)octahydro-cyclopenta[c]pyrrol-5-amine]
